The test system of series [1] is human hepatoma cell line ET (lub ubi neo/ET). Put plainly: Cytotoxicity (colorimetric cell number assay) in the ET line. Conditions: cytotoxicity versus antiviral activity. The protocol: The compounds were dissolved in DMSO at five half-log concentrations each, ranging from either 0.03 to 3 μM or 1 to 100 μM. Subconfluent cultures of the ET line were plated out into 96 well plates dedicated for the analysis of cell numbers (cytotoxicity) or antiviral activity and the next day the compounds were added to the appropriate wells. […] Compound EC50 and EC90 values were derived from HCV RNA levels assessed as HCV RNA replicon derived LUC activity. Cytotoxicity was expressed as IC50 and IC90, the concentration of compound that inhibited cell viability by 50% and 90%, respectively. Compound IC50 and IC90 values were calculated using a colorimetric assay as an indication of cell numbers and cytotoxicity. The activity of the LUC reporter is directly proportional to HCV RNA levels in the human cell line. The HCV-replicon assay was validated in parallel experiments using interferon-alpha-2b as a positive control. Cyclosporine was also tested by way of comparison.

The test system of series [2] is human T-lymphoblastoid cell line, CEM-SS. The experiment in a line: Compound toxicity (MTS) in CEM-SS cells. The format is cell-based. The protocol: Certain compounds of the present invention were also tested for antiretroviral activity against human immunodeficiency virus-1 (HIV) using infection of the human T-lymphoblastoid cell line, CEM-SS, with the HIV strain […] (Weislow et al., 1989, J. Natl. Cancer Inst. 81:577-586). In this MTS cytoprotection assay, each experiment included cell control wells (cells only), virus control wells (cells plus virus), drug toxicity wells (cells plus drug only), drug calorimetric control wells (drug only) as well as experimental wells (drug plus cells plus virus). Compounds were first dissolved in DMSO and tested using six half-log dilutions, starting with a high concentration of either 20 or 2 μM. HIV-1RF was added to each well in a volume of 50 μL, the amount of virus determined to give approximately 90% cell killing at 6 days post-infection. At assay termination, assay plates were stained with the soluble tetrazolium-based dye MTS (CellTiter 96 Reagent, Promega) to determine cell viability and quantify compound toxicity. MTS is metabolized by the mitochondria enzymes of metabolically active cells to yield a soluble formazan product, providing a quantitative analysis of cell viability and compound cytotoxicity. The assay was validated in parallel experiments using Zidovudine (3′-azido-3′-deoxythymidine or AZT) as a positive control. […]

In the case of `C/C=C/C[C@@H](C)[C@@H](O)[C@H]1C(=O)N[C@@H](CC)C(=O)N(C)CC(=O)N(C)[C@@H](CC(C)C)C(=O)N[C@@H](C(C)C)C(=O)N(C)[C@@H](CC(C)C)C(=O)N[C@@H](C)C(=O)N[C@H](CCCCN)C(=O)N(C)[C@@H](CC(C)C)C(=O)N(C)[C@@H](CC(C)C)C(=O)N(C)[C@@H](C(C)C)C(=O)N1C` [Compound 2, [D-Lysyl]^8cyclosporine], the “safety margin (antiviral IC50 versus cytotoxicity EC50)” value in series [1] was “exhibited a safety margin”.
Consider `C/C=C/C[C@@H](C)[C@@H](O)[C@H]1C(=O)N[C@@H](CC)C(=O)N(C)CC(=O)N(C)[C@@H](CC(C)C)C(=O)N[C@@H](C(C)C)C(=O)N(C)[C@@H](CC(C)C)C(=O)N[C@@H](C)C(=O)N[C@H](CCCCN(C)C)C(=O)N(C)[C@@H](CC(C)C)C(=O)N(C)[C@@H](CC(C)C)C(=O)N(C)[C@@H](C(C)C)C(=O)N1C` [Compound 1, [(N,N-ε-Dimethyl)-D-lysyl]^8cyclosporine], for which the “safety margin (antiviral IC50 versus cytotoxicity EC50)” value in series [1] is reported as “exhibited a safety margin”. Further, in series [2], the “cytotoxicity at the concentrations that inhibit HIV” value is listed as “not cytotoxic”.

The values are drawn from patent US7576057B2, “Cyclic peptides” (Scynexis, Inc., priority 2006, dated 2009).
